Tests used:
Type in all cases: biochemical
[1] = molecular target: T1, PHD2 (EGLN1) (Homo sapiens, UniProt Q9GZT9); experiment: MALDI-based assay EGLN1 prolyl hydroxylation of peptide; details: MALDI-TOF, peptide substrate
T1 construct: Full length EGLN1 construct plasmid with; TEV-His (N); host or cells: E. coli BL21 (DE3)
Protocol: demethylation events on the peptide. The percent peak area was calculated, and the K27me2, me1,
and me0 peaks were summed to get the relative percent demethylated peptide.
MALDI-based assay for FTO and ALKBH5: To determine the enzymatic activity of FTO and
ALKBH5 recombinant proteins in the presence of L-Leu NOG 6, a previously published methods
were utilized.15, 18 Briefly,10 µM of each protein was incubated in the presence of 10 µM RNA
7.5, 150 mM KCl, 50 µM L-Leu NOG or equivalent volume of water in 10 µL aliquots. The
samples were placed on ice for 10 minutes followed by addition of 200 µM 2OG or equivalent
volume of water. After incubation at 37 °C for 30 minutes, samples were desalted with 3 µL of BT
spotted on a MALDI plate with 1uL sample and 1uL of 3-HPA matrix and monitored with Bruker
FlexControl in the reflectron negative mode and analyzed on Bruker FlexAnalysis software.
Relative inhibition was monitored via assessing percent product decrease with L-Leu NOG
MALDI-based assay for C14orf169 (NO66) and MINA: To monitor the enzymatic activity of […]
1 µL S-DHB matrix were spotted on a MALDI plate and monitored with Bruker FlexControl in
(§1) the reflectron positive mode and analyzed on Bruker FlexAnalysis software. […]
was monitored via assessing percent product decrease with L-Leu NOG samples compared to no […]
monitored following a reported method.19 To monitor the enzymatic activity of EGLN1 and 3 […]

[2] = molecular target: T2, KDM6B (Homo sapiens, UniProt O15054); experiment: MALDI-based assay for KDM6B on H3K27me3 peptide; details: MALDI-TOF
T2 construct: The plasmid construct for the catalytic domain of wild type KDM6B; 6xHis (N); made in house; host or cells: E. coli Rosetta [DE3]
Protocol: (NH4)2Fe(SO4)2, 1 mM L-ascorbic acid, 1 mM NAD+, 200 nM FDH, and 1 µM KDM4A) in varying concentrations (0-10 µM). The experiments were performed in 384-well white Corning plates. The fluorescence intensity was measured with excitation = 340 nm and emission = 490 nm on a TECAN Infinite M1000Pro. Triplicate values were taken for each concentration.
The set up and analysis for IC50 of L-Leu NOG against KDM4A F185A enzyme was similar to that described in the coupled fluorescence assay section, but adjusted to function as an end point […]
2 mM L-ascorbic acid, 1 mM NAD+, 200 nM FDH, 3 µM wild type KDM4A or KDM4A-F185A, and varying concentration of compounds (NOGs 6, 9 and 10) and a substrate cocktail (200 µM 2OG and 60 µM H3K9me3 peptide). Different concentrations of NOG 6 were measured at one […]
For 9 and 10, the same set-up remained, but enzymatic activity was measured via MALDI-TOF analysis, and relative activity and inhibition was calculated for different NOG concentrations as described above. […]
equivalent volume of water in 10 µL aliquots. […] The sample was ionized with Bruker FlexControl in the reflectron positive mode and analyzed on Bruker FlexAnalysis software. The percent demethylated peptide was calculated by first multiplying the K27me1 peak by 2 and the K27me0 peak by 3 to account for the multiple […]
as §1

[3] = molecular target: T3, KDM8 (JMJD5) (Homo sapiens, UniProt Q8N371); experiment: MALDI-TOF assay for JMJD5 arginine hydroxylation of peptide; details: peptide substrate
T3 construct: we recombinantly expressed the catalytic domains of 12 wild type dioxygenases; made in house
T3 sequence (Q8N371 271-416 limits assumed): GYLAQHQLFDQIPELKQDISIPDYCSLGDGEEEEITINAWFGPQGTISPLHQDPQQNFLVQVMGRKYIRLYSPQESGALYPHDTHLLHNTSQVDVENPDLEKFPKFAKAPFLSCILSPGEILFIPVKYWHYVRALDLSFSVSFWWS

T1 sequence (Q9GZT9 whole entry): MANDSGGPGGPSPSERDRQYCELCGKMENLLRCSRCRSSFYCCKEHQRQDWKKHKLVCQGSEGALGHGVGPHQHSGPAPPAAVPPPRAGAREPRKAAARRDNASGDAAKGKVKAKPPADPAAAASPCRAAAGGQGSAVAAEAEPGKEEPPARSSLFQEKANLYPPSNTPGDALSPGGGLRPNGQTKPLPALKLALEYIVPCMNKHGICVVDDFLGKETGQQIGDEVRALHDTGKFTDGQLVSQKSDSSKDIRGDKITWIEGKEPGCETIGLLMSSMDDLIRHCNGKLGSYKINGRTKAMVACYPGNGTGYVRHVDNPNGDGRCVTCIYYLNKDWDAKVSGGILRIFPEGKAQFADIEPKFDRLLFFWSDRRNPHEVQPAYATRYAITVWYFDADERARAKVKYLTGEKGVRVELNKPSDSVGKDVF
T2 sequence (O15054 1339-1502 limits assumed): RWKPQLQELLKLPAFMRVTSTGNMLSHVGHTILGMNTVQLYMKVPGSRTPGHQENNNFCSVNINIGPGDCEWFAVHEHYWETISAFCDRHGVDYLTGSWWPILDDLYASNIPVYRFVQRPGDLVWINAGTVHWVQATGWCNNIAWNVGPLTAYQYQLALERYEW

CC(C)CC(NC(=O)C(=O)O)C(=O)O (stereo not drawn) [compound 6, N-oxalyl leucine]
No inhibition: inhibition of PHD2 [1] | inhibition of KDM6B [2] | inhibition of JMJD5 [3]

Reference: paper PMC11783601, “Analogue-Sensitive Inhibition of Histone Demethylases Uncovers Member-Specific Function in Ribosomal Protein Synthesis” (Journal of the American Chemical Society, 2025)
